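In this assay, cells in 96-well plates receive the compound at five concentrations for 48 hours. Endpoints are linearly interpolated between the surrounding concentrations. GI50: concentration for 50% inhibition of growth.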 The source made the active and inactive calls. Cut-off read from the data, not from the text of the source: active = GI50 up to about 1.1 µM and inactive = higher.
Key:
Assay in all cases: NCI tumour cell line growth inhibition, 48 h
786-0 = system: 786-0
A498 = system: A498
A549 = system: A549
ACHN = system: ACHN
BT-549 = system: BT-549
CAKI-1 = system: CAKI-1
CCRF-CEM = system: CCRF-CEM
COLO 205 = system: COLO 205
DU-145 = system: DU-145
EKVX = system: EKVX
HCC 2998 = system: HCC 2998
HCT-116 = system: HCT-116
HCT-15 = system: HCT-15
HL-60 = system: HL-60
HOP-62 = system: HOP-62
HOP-92 = system: HOP-92
HT-29 = system: HT-29
KM12 = system: KM12
LOX IMVI = system: LOX IMVI
M14 = system: M14
MCF7 = system: MCF7
MDA-MB-231 = system: MDA-MB-231
MDA-MB-435 = system: MDA-MB-435
MDA-N = system: MDA-N
MOLT-4 = system: MOLT-4
Malme-3M = system: Malme-3M
NCI-H226 = system: NCI-H226
NCI-H23 = system: NCI-H23
NCI-H460 = system: NCI-H460
NCI/ADR-RES = system: NCI/ADR-RES
OVCAR-3 = system: OVCAR-3
OVCAR-5 = system: OVCAR-5
OVCAR-8 = system: OVCAR-8
PC-3 = system: PC-3
RPMI-8226 = system: RPMI-8226
SF-268 = system: SF-268
SF-295 = system: SF-295
SF-539 = system: SF-539
SK-MEL-28 = system: SK-MEL-28
SK-MEL-5 = system: SK-MEL-5
SK-OV-3 = system: SK-OV-3
SN12C = system: SN12C
SNB-19 = system: SNB-19
SR = system: SR
SW-620 = system: SW-620
T47D = system: T47D
TK-10 = system: TK-10
U-251 = system: U-251
UACC-257 = system: UACC-257
UO-31 = system: UO-31
Hs-578T = system: Hs-578T
K562 = system: K562
NCI-H522 = system: NCI-H522
OVCAR-4 = system: OVCAR-4
RXF 393 = system: RXF 393
SK-MEL-2 = system: SK-MEL-2
SNB-75 = system: SNB-75
UACC-62 = system: UACC-62

`CC1(C)OC(=O)C(=Cc2ccc([N+](=O)[O-])s2)C(=O)O1` was tested, and the GI50 (786-0) was 16.9 µM (inactive), the GI50 (A498) was 22.5 µM (inactive) and the GI50 (A549) was 90.8 µM (inactive). For the same molecule, the GI50 (ACHN) was 13.7 µM (inactive), the GI50 (BT-549) was 13.4 µM (inactive) and the GI50 (CAKI-1) was 15.6 µM (inactive). The GI50 (CCRF-CEM) was 13.2 µM (inactive), the GI50 (COLO 205) was 16.6 µM (inactive) and the GI50 (DU-145) was 15.8 µM (inactive). For the same molecule, the GI50 (EKVX) was 17.1 µM (inactive), the GI50 (HCC 2998) was 11.3 µM (inactive) and the GI50 (HCT-116) was 2.4 µM (inactive). The GI50 (HCT-15) was 3.18 µM, the GI50 (HL-60) was 2.49 µM (inactive) and the GI50 (HOP-62) was 18.2 µM (inactive). For the same molecule, the GI50 (HOP-92) was 21.1 µM (inactive), the GI50 (HT-29) was 13.4 µM (inactive) and the GI50 (KM12) was 14.7 µM (inactive). For the same molecule, the GI50 (LOX IMVI) was 16.7 µM (inactive), the GI50 (M14) was 12.3 µM (inactive) and the GI50 (MCF7) was 12.7 µM (inactive). For the same molecule, the GI50 (MDA-MB-231) was 18.9 µM (inactive), the GI50 (MDA-MB-435) was 14.9 µM (inactive) and the GI50 (MDA-N) was 14.9 µM (inactive). For the same molecule, the GI50 (MOLT-4) was 8.22 µM (inactive), the GI50 (Malme-3M) was 19.2 µM (inactive) and the GI50 (NCI-H226) was 23.5 µM (inactive). For the same molecule, the GI50 (NCI-H23) was 18.1 µM (inactive), the GI50 (NCI-H460) was 56.6 µM (inactive) and the GI50 (NCI/ADR-RES) was 18.5 µM (inactive). The GI50 (OVCAR-3) was 10.6 µM (inactive), the GI50 (OVCAR-5) was 16.6 µM (inactive) and the GI50 (OVCAR-8) was 11.4 µM (inactive). For the same molecule, the GI50 (PC-3) was 19.2 µM (inactive), the GI50 (RPMI-8226) was 8.32 µM (inactive) and the GI50 (SF-268) was 14.7 µM (inactive). The GI50 (SF-295) was 15.7 µM (inactive), the GI50 (SF-539) was 15.4 µM (inactive) and the GI50 (SK-MEL-28) was 18.9 µM (inactive). The GI50 (SK-MEL-5) was 16.2 µM (inactive), the GI50 (SK-OV-3) was 25.5 µM (inactive) and the GI50 (SN12C) was 16.1 µM (inactive). The GI50 (SNB-19) was 16.5 µM (inactive), the GI50 (SR) was 2.72 µM (inactive) and the GI50 (SW-620) was 1.94 µM (inactive). The GI50 (T47D) was 14 µM (inactive), the GI50 (TK-10) was 17.3 µM (inactive) and the GI50 (U-251) was 15.4 µM (inactive). For the same molecule, the GI50 (UACC-257) was 18.6 µM (inactive) and the GI50 (UO-31) was 10.8 µM (inactive).

For `COC1CC2CCC(C)[C@](O)(O2)C(=O)C(=O)N2CCCCC2C(=O)OC(C(C)CC2CCC(O)C(OC)C2)CC(=O)C(C)C=C(C)C(OC(=O)CN(C)C)C(OC)C(=O)C(C)CC(C)/C=C/C=C/C=C\1C` (some centres not stated), the GI50 (786-0) was 10.8 µM (inactive), the GI50 (A498) was < 0.01 µM (active) and the GI50 (A549) was 11 µM (inactive). The GI50 (ACHN) was 0.0101 µM (active), the GI50 (BT-549) was < 0.01 µM (active) and the GI50 (CCRF-CEM) was < 0.01 µM (active). For the same molecule, the GI50 (COLO 205) was 11.3 µM (inactive), the GI50 (DU-145) was 7.38 µM (inactive) and the GI50 (EKVX) was < 0.01 µM (active). For the same molecule, the GI50 (HCT-116) was 5.87 µM (inactive), the GI50 (HCT-15) was 10.4 µM and the GI50 (HL-60) was 2 µM (inactive). The GI50 (HOP-62) was < 0.01 µM (active), the GI50 (HOP-92) was < 0.01 µM (active) and the GI50 (HT-29) was 3.81 µM (inactive). For the same molecule, the GI50 (Hs-578T) was < 0.01 µM (active), the GI50 (K562) was < 0.01 µM (active) and the GI50 (KM12) was 9.59 µM (inactive). For the same molecule, the GI50 (LOX IMVI) was < 0.01 µM (active), the GI50 (M14) was 7.43 µM (inactive) and the GI50 (MCF7) was < 0.01 µM (active). The GI50 (MDA-MB-231) was 3.67 µM (inactive), the GI50 (MDA-MB-435) was 2.69 µM (inactive) and the GI50 (MOLT-4) was < 0.01 µM (active). For the same molecule, the GI50 (Malme-3M) was < 0.01 µM (active), the GI50 (NCI-H226) was 10.3 µM (inactive) and the GI50 (NCI-H23) was 10.9 µM (inactive). The GI50 (NCI-H460) was 6.22 µM (inactive), the GI50 (NCI-H522) was 3.94 µM (inactive) and the GI50 (OVCAR-3) was 9.79 µM (inactive). The GI50 (OVCAR-4) was < 0.01 µM (active), the GI50 (OVCAR-5) was 12.6 µM (inactive) and the GI50 (OVCAR-8) was 0.403 µM (active). The GI50 (PC-3) was < 0.01 µM (active), the GI50 (RPMI-8226) was < 0.01 µM (active) and the GI50 (RXF 393) was < 0.01 µM (active). The GI50 (SF-268) was 7.19 µM (inactive), the GI50 (SF-295) was < 0.01 µM (active) and the GI50 (SF-539) was < 0.01 µM (active). The GI50 (SK-MEL-28) was 0.973 µM (active), the GI50 (SK-MEL-2) was < 0.0419 µM (active) and the GI50 (SK-MEL-5) was 3.78 µM (inactive). The GI50 (SK-OV-3) was < 0.01 µM (active), the GI50 (SNB-19) was < 0.01 µM (active) and the GI50 (SNB-75) was < 0.01 µM (active). The GI50 (SR) was < 0.01 µM (active), the GI50 (T47D) was < 0.01 µM (active) and the GI50 (TK-10) was 11.6 µM (inactive). The GI50 (U-251) was < 0.01 µM (active), the GI50 (UACC-257) was 11.3 µM (inactive) and the GI50 (UACC-62) was < 0.01 µM (active). The GI50 (UO-31) was < 0.01 µM (active).

Source: ChEMBL document CHEMBL1201862, “PubChem BioAssay data set” (2004)
